Experimental data from patent US8580965B2, “Substituted sulfonamide compounds” (Gruenenthal GmbH, priority 2006, dated 2013).

Biological target: T1, human B1R receptor (bradykinin 1 receptor) (Homo sapiens, UniProt P46663)
T1 construct: host or cells: CHO K1 cells (hB1R cells)
T1 sequence (P46663 1-353): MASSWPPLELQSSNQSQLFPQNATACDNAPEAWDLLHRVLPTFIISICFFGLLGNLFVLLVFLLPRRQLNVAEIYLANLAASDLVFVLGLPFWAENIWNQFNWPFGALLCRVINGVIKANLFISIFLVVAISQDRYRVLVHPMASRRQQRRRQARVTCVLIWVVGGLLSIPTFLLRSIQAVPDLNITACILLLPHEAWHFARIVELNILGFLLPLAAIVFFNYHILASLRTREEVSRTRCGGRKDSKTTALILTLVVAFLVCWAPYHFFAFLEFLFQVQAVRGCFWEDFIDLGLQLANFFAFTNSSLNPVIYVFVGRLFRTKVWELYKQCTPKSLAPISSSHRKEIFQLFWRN
Experiment: FLIPR Ca2+ assay (Fluo-4) on CHO K1 cells stably transfected with the human B1R gene; % activation and % inhibition at 10 μM
Assay type: cell-based
Conditions: CHO-K1, test substance 10 μM; CHO K1 hB1R cells; Ca2+ inflow after 0.5 nM Lys-Des-Arg9-bradykinin; read-out: B1R antagonism, human [10 μM] % inhibition
Experimental: The agonistic or antagonistic action of substances can be quantified on the bradykinin receptor 1 (B1R) of the species human and rat with ectopically expressing cell lines (CHO K1 cells) and with the aid of a Ca^2+-sensitive dye (Fluo-4) using a fluorescent imaging plate reader (FLIPR). The indication in % activation is based on the Ca^2+ signal after addition of Lys-Des-Arg^9-bradykinin (0.5 nM) or Des-Arg^9-bradykinin (100 nM). Antagonists result in a suppression of the Ca^2+ influx following administration of the agonist. The % inhibition in comparison with the maximum achievable inhibition is indicated.
Functional Investigation on the Bradykinin 1 Receptor (B1R)
The agonistic or antagonistic action of substances can be determined on the bradykinin 1 receptor (B1R) of the human and rat species with the following assay. According to this assay, the Ca^2+ inflow through the channel is quantified with the aid of a Ca^2+-sensitive dyes (Fluo-4 type, Molecular Probes Europe BV, Leiden, The Netherlands) in a fluorescent imaging plate reader (FLIPR, Molecular Devices, Sunnyvale, USA).
Chinese Hamster Ovary cells (CHO K1 cells) which are stably transfected with the human B1R gene (hB1R cells, Euroscreen s.a., Gosselies, Belgium) or the B1R gene of the rat (rB1R cells, Axxam, Milan, Italy) are used. For functional investigations, these cells are plated-out on black 96-well plates with a clear base (BD Biosciences, Heidelberg, Germany) in a density of 20,000-25,000 cells/well. Overnight, the cells are incubated at 37° C. and 5% CO2 in culture medium (hB1R cells: Nutrient Mixture Ham's F12, Gibco Invitrogen GmbH, Karlsruhe, Germany; rB1R cells: D-MEM/F12, Gibco Invitrogen, Karlsruhe, Germany) with 10 vol. % FBS (foetal bovine serum, Gibco Invitrogen GmbH, Karlsruhe, Germany). On the following day, the cells are loaded with 2.13 μM Fluo-4 (Molecular Probes Europe BV, Leiden, The Netherlands) in HBSS buffer (Hank's buffered saline solution, Gibco Invitrogen GmbH, Karlsruhe, Germany) […] (Sigma-Aldrich, Taufkirchen, Germany) and 10 mM HEPES (Sigma-Aldrich, Taufkirchen, Germany) for 60 min at 37° C. The plates are subsequently washed 2× with HBSS buffer, and HBSS buffer which additionally contains 0.1% BSA (bovine serum albumin; Sigma-Aldrich, Taufkirchen, Germany), 5.6 mM glucose and 0.05% gelatine (Merck KGaA, Darmstadt, Germany) is added. After a further incubation of 20 minutes at room temperature, the plates are inserted into the FLIPR for Ca^2+ measurement. The Ca^2+-dependent fluorescence is measured here before and after addition of substances (λex=488 nm, λem=540 nm). The quantification is effected by measurement of the highest fluorescence intensity (FC, fluorescence counts) over time.
The FLIPR protocol comprises 2 additions of substance. Test substances (10 μM) are first pipetted on to the cells and the Ca^2+ inflow is compared with the control (hB1R: Lys-Des-Arg^9-bradykinin 0.5 nM; rB1R: Des-Arg^9-bradykinin 100 nM). The value in % activation based on the Ca^2+ signal after addition of Lys-Des-Arg^9-bradykinin (0.5 nM) or Des-Arg^9-bradykinin (100 nM) is obtained therefrom. After incubation for 10 minutes, 0.5 nM Lys-Des-Arg^9-bradykinin (hB1R) or 100 nM Des-Arg^9-bradykinin (rB1R) are applied and the inflow of Ca^2+ is likewise determined. Antagonists lead to a suppression of the Ca^2+ inflow. % inhibition compared with the maximum inhibition which can be achieved is calculated. The compounds show a good activity on the human and on the rat receptor. The following data were determined by way of example: […]

Row | Compound | inhibition at 10 µM
1 | COc1cc(C)c(S(=O)(=O)N2CCCC(OCC(=O)N3CCC(O)(Cc4ccccc4)CC3)C2)c(C)c1C (stereo not shown) [Example 11, 1-(4-benzyl-4-hydroxy-piperidin-1-yl)-2-[1-(4-methoxy-2,3,6-trimethyl-phenylsulfonyl)-piperidin-3-yloxy]-ethanone] | 70.9%
2 | O=C(COCC1CCCCN1S(=O)(=O)c1ccc(Cl)c(Cl)c1)N1CCC(O)(c2cccnc2)CC1 (stereo not shown) [Example 12, 2-[1-(3,4-dichloro-phenylsulfonyl)-piperidin-2-ylmethoxy]-1-(4′-hydroxy-3′,4′,5′,6′-tetrahydro-2′H-[3,4′]bipyridinyl-1′-yl)-ethanone] | 55.1%
3 | COc1cc(C)c(S(=O)(=O)N(CCOCC(=O)N2CCC(O)(Cc3ccccc3)CC2)Cc2ccccc2)c(C)c1C [Example 13, N-benzyl-N-{2-[2-(4-benzyl-4-hydroxy-piperidin-1-yl)-2-oxo-ethoxy]-ethyl}-4-methoxy-2,3,6-trimethyl-phenylsulfonamide] | 50.7%
4 | COc1cc(C)c(S(=O)(=O)N2CCC(CCOCC(=O)N3CCC(O)(Cc4ccccc4)CC3)CC2)c(C)c1C [Example 14, 1-(4-benzyl-4-hydroxy-piperidin-1-yl)-2-{2-[1-(4-methoxy-2,3,6-trimethyl-phenylsulfonyl)-piperidin-4-yl]-ethoxy}-ethanone] | 43.2%
5 | O=C(COC1CCN(S(=O)(=O)c2ccc(F)cc2)C1)N1CCC(O)(Cc2ccccc2)CC1 (stereo not shown) [Example 15, 1-(4-benzyl-4-hydroxy-piperidin-1-yl)-2-[1-(4-fluoro-phenylsulfonyl)-pyrrolidin-3-yloxy]-ethanone] | 40.2%
6 | COc1ccc(S(=O)(=O)N(C)CCOCC(=O)N2CCC(O)(Cc3ccccc3)CC2)cc1OC [Example 16, N-{2-[2-(4-benzyl-4-hydroxy-piperidin-1-yl)-2-oxo-ethoxy]-ethyl}-3,4-dimethoxy-N-methyl-phenylsulfonamide] | 31.2%
7 | COc1cc(C)c(S(=O)(=O)N2CCN(CCOCC(=O)N3CCC(O)(Cc4ccccc4)CC3)CC2)c(C)c1C [Example 18, 1-(4-benzyl-4-hydroxy-piperidin-1-yl)-2-{2-[4-(4-methoxy-2,3,6-trimethyl-phenylsulfonyl)-piperazin-1-yl]-ethoxy}-ethanone] | 23.5%
8 | O=C(COCC1CCCN1S(=O)(=O)c1ccc(Cl)c(Cl)c1)N1CCC(O)(c2cccnc2)CC1 (stereo not shown) [Example 19, 2-[1-(3,4-dichloro-phenylsulfonyl)-pyrrolidin-2-ylmethoxy]-1-(4′-hydroxy-3′,4′,5′,6′-tetrahydro-2′H-[3,4′]bipyridinyl-1′-yl)-ethanone] | 23.2%
9 | O=C(COC1CCN(S(=O)(=O)c2ccccc2)C1)N1CCC(O)(Cc2ccccc2)CC1 (stereo not shown) [Example 22, 2-(1-phenylsulfonyl-pyrrolidin-3-yloxy)-1-(4-benzyl-4-hydroxy-piperidin-1-yl)-ethanone] | 20.2%
10 | O=C(COCC1CCCCN1S(=O)(=O)c1ccc(Cl)c(Cl)c1)N1CCC(O)(c2ccccn2)CC1 (stereo not shown) [Example 25, 2-[1-(3,4-dichloro-phenylsulfonyl)-piperidin-2-ylmethoxy]-1-(4′-hydroxy-3′,4′,5′,6′-tetrahydro-2′H-[2,4′]bipyridinyl-1′-yl)-ethanone] | 10%
11 | O=C(COC1CCCN(S(=O)(=O)c2ccccc2)C1)N1CCC(O)(Cc2ccccc2)CC1 (stereo not shown) [Example 27, 2-(1-phenylsulfonyl-piperidin-3-yloxy)-1-(4-benzyl-4-hydroxy-piperidin-1-yl)-ethanone] | 9.32%
12 | COc1ccc(S(=O)(=O)N(C)CCOCC(=O)N2CCC(O)(Cc3ccccc3)CC2)cc1 [Example 28, N-{2-[2-(4-benzyl-4-hydroxy-piperidin-1-yl)-2-oxo-ethoxy]-ethyl}-4-methoxy-N-methyl-phenylsulfonamide] | 8.5%
13 | COc1ccc(S(=O)(=O)N2CCCCC2CCOCC(=O)N2CCC(O)(Cc3ccccc3)CC2)cc1 (stereo not shown) [Example 29, 1-(4-benzyl-4-hydroxy-piperidin-1-yl)-2-{2-[1-(4-methoxy-phenylsulfonyl)-piperidin-2-yl]-ethoxy}-ethanone] | 7.66%
14 | O=C(COC1CCN(S(=O)(=O)c2ccc(Cl)cc2)C1)N1CCC(O)(Cc2ccccc2)CC1 (stereo not shown) [Example 31, 1-(4-benzyl-4-hydroxy-piperidin-1-yl)-2-[1-(4-chloro-phenylsulfonyl)-pyrrolidin-3-yloxy]-ethanone] | 6.81%
15 | O=C(COCCN1CCN(S(=O)(=O)c2ccccc2)CC1)N1CCC(O)(Cc2ccccc2)CC1 [Example 32, 2-[2-(4-phenylsulfonyl-piperazin-1-yl)-ethoxy]-1-(4-benzyl-4-hydroxy-piperidin-1-yl)-ethanone] | 6.63%
16 | COc1ccc(S(=O)(=O)N2CCCCC2COCC(=O)N2CCC(O)(Cc3ccccc3)CC2)cc1 (stereo not shown) [Example 35, 1-(4-benzyl-4-hydroxy-piperidin-1-yl)-2-[1-(4-methoxy-phenylsulfonyl)-piperidin-2-ylmethoxy]-ethanone] | 5.08%
17 | O=C(COCC1CCCN1S(=O)(=O)c1ccc(Cl)c(Cl)c1)N1CCC(O)(c2ccccn2)CC1 (stereo not shown) [Example 36, 2-[1-(3,4-dichloro-phenylsulfonyl)-pyrrolidin-2-ylmethoxy]-1-(4′-hydroxy-3′,4′,5′,6′-tetrahydro-2′H-[2,4′]bipyridinyl-1′-yl)-ethanone] | 3.64%
18 | O=C(COC1CCN(S(=O)(=O)c2ccccc2)CC1)N1CCC(O)(Cc2ccccc2)CC1 [Example 37, 2-(1-phenylsulfonyl-piperidin-4-yloxy)-1-(4-benzyl-4-hydroxy-piperidin-1-yl)-ethanone] | 3.4%
19 | CN(CCOCC(=O)N1CCC(O)(Cc2ccccc2)CC1)S(=O)(=O)c1cccc(C(F)(F)F)c1 [Example 38, N-{2-[2-(4-benzyl-4-hydroxy-piperidin-1-yl)-2-oxo-ethoxy]-ethyl}-N-methyl-3-trifluoromethyl-phenylsulfonamide] | 3.28%
20 | CN(CCOCC(=O)N1CCC(O)(Cc2ccccc2)CC1)S(=O)(=O)c1ccccc1 [Example 39, N-{2-[2-(4-benzyl-4-hydroxy-piperidin-1-yl)-2-oxo-ethoxy]-ethyl}-N-methyl-phenylsulfonamide] | 2.99%
21 | COc1cc(C)c(S(=O)(=O)N2CCC(CCOCC(=O)N3CCC(O)(c4ccccn4)CC3)CC2)c(C)c1C [Example 45, 1-(4′-hydroxy-3′,4′,5′,6′-tetrahydro-2′H-[2,4′]bipyridinyl-1′-yl)-2-{2-[1-(4-methoxy-2,3,6-trimethyl-phenylsulfonyl)-piperidin-4-yl]-ethoxy}-ethanone] | -2.48%
22 | O=C(COC1CCN(S(=O)(=O)c2ccccc2)CC1)N1CCC(O)(c2cccnc2)CC1 [Example 46, 2-(1-phenylsulfonyl-piperidin-4-yloxy)-1-(4′-hydroxy-3′,4′,5′,6′-tetrahydro-2′H-[3,4′]bipyridinyl-1′-yl)-ethanone] | -3.51%
